Assay results published in patent US20080305111A1, “Anti-C35 antibodies for treating cancer” (VACCINEX, INC., priority 2006, published 2008).
Like-named read-outs stand apart in the source and are kept apart here.

Tests used:
[1] = system: rabbit anti-human C35 polyclonal antibody; test: ELISA of rabbit C35 immune serum on plates coated with C35 15-mer peptides; assay type: binding
[2] = cited from earlier work
Colau.C35 tumor cells = test: Combination radioimmunotherapy and chemotherapy, second experiment (FIG. 6, Table 6); assay type: in vivo, Swiss nude mice
Protocol: Swiss nude mice were grafted with Colau.C35 cells on day 0. Chemotherapy: Cisplatin administered at 2 mg/kg i.v. on days 15 & 18; 5FU/LV administered at 180/120 mg/kg i.v. on day 18.
Cispaltin was administered on days 15 and 18 following tumor graft. […] Tumor growth was followed for up to 10 weeks.

21MT1 tumor cells = test: C35 surface staining following drug induced apoptosis (flow cytometry); assay type: cell-based
Protocol: 24 hours following treatment with 0.5 uM Taxol™, 21MT1 tumor cells were stained with annexin V-FITC, propidium iodide, and with either 100 ng anti-C35 antibody 1F2 (dark line) or isotype control (grey fill) antibody. Both antibodies were directly conjugated to Alexa-647. Histograms were gated on the cells undergoing apoptosis (annexinV positive/PI negative). Antibodies were pre-incubated with PAB buffer (FIG. 3A), 100-fold molar excess recombinant C35 protein (FIG. 3B), or 100-fold molar excess β-galactosidase protein (FIG. 3C).
A line of continuously growing breast tumor cells that express the C35 tumor antigen was either treated with 6 ug/ml mitomycin C or left untreated. After continued in vitro culture for 48 hours to allow apoptosis to develop, cells were harvested, washed and stained with 50 ng of 1F2 monoclonal anti-C35 antibody or a mouse IgG antibody control each conjugated to the fluorescent dye Alexa 647. Following 50 minutes incubation at 25° C., cells were stained with Annexin V and propidium iodide (PI) using a standard commercial kit (Pharmingen). Cells were analyzed for staining with Annexin V, propidium iodide and Alexa 647 by flow cytometry employing standard protocols.

[3] = Toxicity of chemotherapy, radioimmunotherapy and combination therapy by weight loss (FIG. 8); parameters: species or system Swiss nude mice; details: Swiss nude, mouse, in vivo, intravenous; together with Leucovorin at 120 mg/kg
[4] = 14 μg/ml peptide coated plates, 100 ng/ml primary antibody
[5] = 40 μg/ml peptide coated plates, 1 μg/ml primary antibody
[6] = non-toxic dose at indicated schedule (dose of column Dose + RIT)
[7] = literature values, schedule as in table

TSVAPPPEEVEPGSG [P8]
Absorbance @ 450-570 nm [1, 4]: 0.059 | Absorbance @ 450-570 nm [1, 5]: 0.394

PPEEVEPGSGVRIVV [P13]
Absorbance @ 450-570 nm [1, 4]: 0.385 | Absorbance @ 450-570 nm [1, 5]: 2.522

AIRRASNGETLEKIT [P92]
Absorbance @ 450-570 nm [1, 4]: 0.04 | Absorbance @ 450-570 nm [1, 5]: 0.267

FPYEKDLIEAIRRAS [P83]
Absorbance @ 450-570 nm [1, 4]: 0.025 | Absorbance @ 450-570 nm [1, 5]: 0.19

EVEPGSGVRIVVEYA [P16]
Absorbance @ 450-570 nm [1, 4]: 0.027 | Absorbance @ 450-570 nm [1, 5]: 0.172

O=P1(N(CCCl)CCCl)NCCCO1 (centres unmarked) [Cyclophosphamide]
Maximum Tolerated Dose [2, 6]: No toxicity ^2

FEIEINGQLVFSKLE [P65]
Absorbance @ 450-570 nm [1, 4]: 0.043 | Absorbance @ 450-570 nm [1, 5]: 0.269

GGFPYEKDLIEAIRR [P81]
Absorbance @ 450-570 nm [1, 4]: 0.032 | Absorbance @ 450-570 nm [1, 5]: 0.204

NGETLEKITNSRPPA [P98]
Absorbance @ 450-570 nm [1, 4]: 0.035 | Absorbance @ 450-570 nm [1, 5]: 0.213

TLEKITNSRPPAVIL [P101]
Absorbance @ 450-570 nm [1, 4]: 0.472 | Absorbance @ 450-570 nm [1, 5]: 2.519

RRASNGETLEKITNS [P94]
Absorbance @ 450-570 nm [1, 4]: 0.061 | Absorbance @ 450-570 nm [1, 5]: 0.526

N.N.[Cl][Pt][Cl] [Cisplatin]
TDD = Tumor doubling delay (Colau.C35 tumor cells; T − C/tumor volume doubling time of untreated): 0.66 | LCK = Log Cell Kill (Colau.C35 tumor cells; TDD/3.32): 0.20 | Colau.C35 tumor growth (FIG. 6) (Colau.C35 tumor cells; cisplatin 2 mg/kg days 15, 18, 5FU/LV 180/120 mg/kg day 18, 300 μCi ^131I-1B3 day 21): some inhibition | T − C: difference in time for treated and control tumors to reach a given volume (Colau.C35 tumor cells; volume 1200 mm^3): 5 days | Maximum Tolerated Dose [2, 7]: 4 mg/kg

IEAIRRASNGETLEK [P90]
Absorbance @ 450-570 nm [1, 4]: 0.04 | Absorbance @ 450-570 nm [1, 5]: 0.403

TGAFEIEINGQLVFS [P62]
Absorbance @ 450-570 nm [1, 4]: 0.023 | Absorbance @ 450-570 nm [1, 5]: 0.107

EPGQTSVAPPPEEVE [P4]
Absorbance @ 450-570 nm [1, 4]: 1.254 | Absorbance @ 450-570 nm [1, 5]: 3.282

ETLEKITNSRPPAVI [P100]
Absorbance @ 450-570 nm [1, 4]: 0.017 | Absorbance @ 450-570 nm [1, 5]: 0.124

AFEIEINGQLVFSKL [P64]
Absorbance @ 450-570 nm [1, 4]: 0.055 | Absorbance @ 450-570 nm [1, 5]: 0.423

IRRASNGETLEKITN [P93]
Absorbance @ 450-570 nm [1, 4]: 0.051 | Absorbance @ 450-570 nm [1, 5]: 0.389

CO[C@@]12[C@H](COC(N)=O)C3=C(C(=O)C(C)=C(N)C3=O)N1C[C@@H]1N[C@@H]12 [mitomycin C]
C35 surface staining of treated cells undergoing apoptosis (21MT1 tumor cells; 6 ug/ml, 48 hours, PI negative, Annexin V positive cells): clearly differentially stained with anti-C35 antibodies as compared to isotype control antibody

SGEPGQTSVAPPPEE [P2]
Absorbance @ 450-570 nm [1, 4]: 0.108 | Absorbance @ 450-570 nm [1, 5]: 1.227

GETLEKITNSRPPAV [P99]
Absorbance @ 450-570 nm [1, 4]: 0.026 | Absorbance @ 450-570 nm [1, 5]: 0.18

O=C1[O][Pt]2([NH][C@@H]3CCCC[C@H]3[NH]2)[O]C1=O [Oxaliplatin]
Maximum Tolerated Dose [2, 7]: 5 mg/kg

EEVEPGSGVRIVVEY [P15]
Absorbance @ 450-570 nm [1, 4]: 0.039 | Absorbance @ 450-570 nm [1, 5]: 0.334

GAFEIEINGQLVFSK [P63]
Absorbance @ 450-570 nm [1, 4]: 0.079 | Absorbance @ 450-570 nm [1, 5]: 0.557

O=c1[nH]cc(F)c(=O)[nH]1 [5-FluoroUracil]
MTD [3]: 180 mg/kg

RASNGETLEKITNSR [P95]
Absorbance @ 450-570 nm [1, 4]: 0.062 | Absorbance @ 450-570 nm [1, 5]: 0.462

PEEVEPGSGVRIVVE [P14]
Absorbance @ 450-570 nm [1, 4]: 0.127 | Absorbance @ 450-570 nm [1, 5]: 0.972

VAPPPEEVEPGSGVR [P10]
Absorbance @ 450-570 nm [1, 4]: 1.736 | Absorbance @ 450-570 nm [1, 5]: 3.407

SNGETLEKITNSRPP [P97]
Absorbance @ 450-570 nm [1, 4]: 0.046 | Absorbance @ 450-570 nm [1, 5]: 0.373

PYEKDLIEAIRRASN [P84]
Absorbance @ 450-570 nm [1, 4]: 0.037 | Absorbance @ 450-570 nm [1, 5]: 0.391

GFPYEKDLIEAIRRA [P82]
Absorbance @ 450-570 nm [1, 4]: 0.02 | Absorbance @ 450-570 nm [1, 5]: 0.18

EKDLIEAIRRASNGE [P86]
Absorbance @ 450-570 nm [1, 4]: 0.023 | Absorbance @ 450-570 nm [1, 5]: 0.166

PPPEEVEPGSGVRIV [P12]
Absorbance @ 450-570 nm [1, 4]: 0.836

EAIRRASNGETLEKI [P91]
Absorbance @ 450-570 nm [1, 4]: 0.023 | Absorbance @ 450-570 nm [1, 5]: 0.144

SVAPPPEEVEPGSGV [P9]
Absorbance @ 450-570 nm [1, 4]: 2.31 | Absorbance @ 450-570 nm [1, 5]: 3.367

NGGFPYEKDLIEAIR [P80]
Absorbance @ 450-570 nm [1, 4]: 0.018 | Absorbance @ 450-570 nm [1, 5]: 0.1

PGQTSVAPPPEEVEP [P5]
Absorbance @ 450-570 nm [1, 4]: 2.719 | Absorbance @ 450-570 nm [1, 5]: 3.383

LIEAIRRASNGETLE [P89]
Absorbance @ 450-570 nm [1, 4]: 0.015 | Absorbance @ 450-570 nm [1, 5]: 0.053

GQTSVAPPPEEVEPG [P6]
Absorbance @ 450-570 nm [1, 4]: 2.483 | Absorbance @ 450-570 nm [1, 5]: 3.381

EIEINGQLVFSKLEN [P66]
Absorbance @ 450-570 nm [1, 4]: 0.028 | Absorbance @ 450-570 nm [1, 5]: 0.182

DLIEAIRRASNGETL [P88]
Absorbance @ 450-570 nm [1, 4]: 0.025 | Absorbance @ 450-570 nm [1, 5]: 0.135

QTSVAPPPEEVEPGS [P7]
Absorbance @ 450-570 nm [1, 4]: 2.635 | Absorbance @ 450-570 nm [1, 5]: 3.388

MSGEPGQTSVAPPPE [P1]
Absorbance @ 450-570 nm [1, 4]: 0.257

Nc1ccn([C@@H]2O[C@H](CO)[C@@H](O)C2(F)F)c(=O)n1 [Gemcitabine]
Maximum Tolerated Dose [2, 6]: No toxicity ^5

APPPEEVEPGSGVRI [P11]
Absorbance @ 450-570 nm [1, 4]: 1.526 | Absorbance @ 450-570 nm [1, 5]: 3.317

CC(=O)O[C@H]1C(=O)[C@@]2(C)[C@H]([C@H](OC(=O)c3ccccc3)[C@]3(O)C[C@H](OC(=O)[C@H](O)[C@@H](NC(=O)c4ccccc4)c4ccccc4)C(C)=C1C3(C)C)[C@]1(OC(C)=O)CO[C@@H]1C[C@@H]2O [Taxol, paclitaxel]
induction of apoptosis and C35 surface exposure (21MT1 tumor cells; 0.5 uM, 24 hours, stained with 1F2): induces apoptosis, resulting in exposure of C35 on the surface of apoptotic tumor cells | Maximum Tolerated Dose [2, 6]: No toxicity ^2

YEKDLIEAIRRASNG [P85]
Absorbance @ 450-570 nm [1, 4]: 0.024 | Absorbance @ 450-570 nm [1, 5]: 0.179

GEPGQTSVAPPPEEV [P3]
Absorbance @ 450-570 nm [1, 4]: 1.458 | Absorbance @ 450-570 nm [1, 5]: 3.349
